# Reference: patent US20250195433A1, “Compositions Having Improved Bioavailability of Therapeutics and Uses Thereof” (TRx Biosciences Limited, priority 2022, published 2025)
# Experiments:
# [1] = Solubility of olaparib in glycerolipids with and without digestion enhancers; type: physicochemical; conditions: 55 mg in 1 g of only MAISINE CC, only GELUCIRE 43/01, or their admixture, 130° C., stirred at least 60 minutes
# [2] = Miscibility / self-emulsification test modelling ICH dissolution testing; type: physicochemical; conditions: 1 g of 100% or 75% preparation in 1 L PBS with […] curcumin, 37° C., stirring 300 rpm 10 min, then 10 min without stirring
# Description: To assess whether oleic acid could self-emulsify at the concentrations used in the disclosed pharmaceutical compositions, experiments was performed that were designed to model dissolution testing according to International Council for Harmonisation (ICH) guidelines. […] Miscibility experiments were performed using two concentrations of oleic acid nominally above the CMC concentration for this fatty acid. In one series of experiments, 1 g of 100% oleic acid was added to the dissolution media. The control compound was 1 g of 100% MAISINE™ CC. In a second series of experiments 1 g of 75% oleic acid (diluted with 250 mg of MAISINE™ CC) was added to the dissolution media. The control compound was 1 g of 75% MAISINE™ CC. The miscibility of oleic acid and MAISINE™ CC was assessed by observing the dissolution media for 10 minutes with constant stirring and then 10 minutes without stirring. Photographs were taken at time 0, 1, 2, 3, 4, 5 and 10 minutes during the stirring phase and 2, 4 and 10 minutes after stirring ceased.
SMILES,solubility of olaparib in glycerolipids without digestion enhancers [1],miscibility in dissolution media [2]
O=C(c1cc(Cc2n[nH]c(=O)c3ccccc23)ccc1F)N1CCN(C(=O)C2CC2)CC1 [olaparib],remained insoluble,–
CCCCCCCC/C=C\CCCCCCCC(=O)O [oleic acid],–,not miscible
